Test results as given in patent US4485239A, “2-(2,6-Dimethyl-3,5-diethoxycarbonyl-1,4-dihydropyridine-4-carboxamide glutaric acid its disodium salt and method of their preparation” (priority 1982, dated 1984).
Where a name gives a salt, the structure may show the parent alone. Read-outs that look alike come from different tables or passages of the source.

Experiments:
[1] = system: arrythmogenic and lethal effects of calcium chloride; experiment: Antagonism towards the arrhythmogenic and lethal effects of calcium chloride in mice (ECG); format: in vivo
Procedure: (§1) In the experiments on white mice narcotized with urethane ECGs were recorded in the second standard lead. A 2% solution of calcium chloride was injected into the tail vein at a constant rate (00.1 ml during 2 seconds).

[2] = Solubility in water; format: physicochemical
[3] = system: experimental models of arrhythmia; experiment: Antiarrhythmic activity on experimental models of arrhythmia (calcium, aconitic and strophanthin), overall; format: in vivo, mice, rats, guinea pigs; settings: for antiarrhythmic activity: in vivo
Procedure: The action of 2-(2,6-dimethyl-3,5-diethoxycarbonyl-1,4-dihydropyridine-4-carboxamide) glutaric acid and its disodium salt on the cardiovascular system was studied in experiments with mice, rats, guinea pigs and cats. […] Antiarrhythmic agents such as quinidine and novocaine amide (procaine amide) were used for comparisons in the […] study.
as §1
(§2) Comparative study of the antiarrhythmic activity of the compounds on an aconitic model of arrhythmia was carried out on albino rats narcotized with urethane and chloralose (intraperitoneally), ECGs were recorded in the second standard lead.
Guinea pigs were narcotized with urethane and chloralose then strophanthin was administered in them, and against the background of arrhythmia, the above compound was administered intravenously. The doses of the compound, that arrest the strophanthin arrhythmia in the guinea pigs were recorded.

[4] = system: Aconitic arrhythmia; experiment: Antiarrhythmic activity on aconitic model of arrhythmia in rats; format: in vivo, albino rats; settings: for ED50: Rattus norvegicus, ip, read-out: ED50, aconitic arrhythmia in rats (average effective antiarrhythmic dose)
Procedure: as §2

[5] = system: Strophanthin arrhythmia; experiment: Arrest of strophanthin arrhythmia in guinea pigs; format: in vivo; settings: for ED50: Cavia porcellus, read-out: ED50, strophanthin arrhythmia in guinea pigs
[6] = in vivo; settings: mouse, in vivo, ip
Description: (§3) Acute toxicity was investigated on mongrel white mice of both sexes (Table 2).

[7] = system: white mice; experiment: in vivo; settings: intraperitoneal
Description: as §3

[8] = system: cardiovascular system; experiment: Acute experiments in narcotized cats: arterial pressure, respiration, ECG and haemodynamic effects of acetyl choline; format: in vivo
Procedure: In acute experiments with cats narcotized with chloralose and urethane arterial pressure, respiration and ECG were recorded. The influence of the above comound on the arterial pressure, respiration, and on the haemodynamic effects of acetyl choline were investigated. Anaqueous solution of the compound was administered intravenously.

[9] = system: cardiac arrhythmia; settings: cited from earlier work; for antiarrhythmic activity / effect on arterial pressure (side-effect): medical practice; for antiarrhythmic activity / effect on arterial pressure (side-effect) / toxicity: prior art
[10] = compound dose 3 mg/kg intraperitoneally
[11] = compound dose 6 mg/kg intraperitoneally
[12] = compound dose 10 mg/kg intraperitoneally
[13] = guinea pigs, intravenous, against background of arrhythmia
[14] = strophanthin arrhythmia, guinea pigs
[15] = cats, intravenous, 0.1-0.2 g/kg
[16] = compound dose 30 mg/kg intraperitoneally

Structure (SMILES) | solubility in water [2] | antiarrhythmic activity [3] | Dose of CaCl2, arrhythmogenic [1, 10] [mg/kg] | Dose of CaCl2, lethal [1, 10] [mg/kg] | Dose of CaCl2, arrhythmogenic [1, 12] [mg/kg] | Dose of CaCl2, lethal [1, 12] [mg/kg] | ED50 [4] [mg/kg] | ED50 [5, 13] [mg/kg] | LD50 [6] [mg/kg] | antiarrhythmic activity [9] | effect on arterial pressure (side-effect) [9] | toxicity [9] | further results
CCOC(=O)C1=C(C)NC(C)=C(C(=O)OCC)C1C(=O)NC(CCC(=O)O)C(=O)O (stereo not shown) [Compound of formula I, 2-(2,6-dimethyl-3,5-diethoxycarbonyl-1,4-dihydropyridine-4-carboxamide) glutaric acid] | hardly soluble in water | pronouncedantiarrhythmic activity | – | – | – | – | – | – | – | – | – | – | antiarrhythmic effect compared with novocaine amide ([1]; novocaine amide dose 30 mg/kg, CaCl2 model, mice): same antiarrhythic effect as novocaine amide in a dose of 30 mg/kg
CCOC(=O)C1=C(C)NC(C)=C(C(=O)OCC)C1C(=O)NC(CCC(=O)O)C(=O)O (stereo not shown) [Compound of formula II, disodium salt of 2-(2,6-dimethyl-3,5-diethoxycarbonyl-1,4-dihydropyridine-4-carboxamide) glutaric acid] | well soluble in water | pronounced antiarrhythmic activity | 98.4 | 105.0 | 130.5 | 140.5 | 3 ± 0.5 | 2.1 ± 0.3 | > 2000 | – | – | – | Dose of CaCl2, arrhythmogenic [1, 11]: 127.4 mg/kg; Dose of CaCl2, lethal [1, 11]: 134.5 mg/kg; effect on arrhythmogenic and lethal doses of calcium chloride ([1]; preliminary administration 20-30 minutes prior to narcosis, mice): considerably increases; antiarrhythmic activity compared with quinidine and novocaine amide ([4]; aconitic model, rats, intraperitoneal 30-40 minutes before aconitine): higher antiarrhythmic activity than quinidine and novocane amide; effect on experimental strophanthin arrhythmia ([5]; guinea pig, in vivo): stable effect; activity compared with quinidine [5, 14]: not inferior to quinidine; activity relative to novocaine amide [5, 14]: approximately 25 fold; toxicity relative to novocaine amide ([7]; mice): 1/17; toxicity relative to quinidine ([7]; mice): 1/12; change in arterial pressure [8, 15]: does not cause any significant change; change in pulse rate [8, 15]: does not cause any significant change; change in respiration rate [8, 15]: does not cause any significant change; response reaction to acetyl choline ([8]; cats, intravenous, doses of up to 4 mg/kg): does not reduce the response reaction to acetyl choline; drop of the arterial pressure ([8]; intravenous application): does not cause a drastic drop of the arterial pressure; activity on experimental models of arrhythmia compared with quinidine and novocaine amide ([3]; calcium, aconitic and strophanthin models): higher activity on all kinds of experimental models of arrhythmia
CCN(CC)CCNC(=O)c1ccc(N)cc1 [Novocaine amide, reference compound] | – | – | – | – | 116.0 | 120.0 | 45 ± 5 | 55 ± 7.3 | 290 | insufficient antiarrthythmic activity | drastically reduce the arterial pressure | toxic | Dose of CaCl2, arrhythmogenic [1, 16]: 127.0 mg/kg; Dose of CaCl2, lethal [1, 16]: 138.0 mg/kg
C=C[C@H]1C[N@@]2CC[C@H]1C[C@@H]2[C@@H](O)c1ccnc2ccc(OC)cc12 [Quinidine, reference compound] | – | – | 126.9 | 136.0 | 120.8 | 133.5 | 4.3 ± 0.6 | – | 156 | insufficient antiarrthythmic activity | drastically reduce the arterial pressure | toxic | ED50 ([5]; iv): 2.3 ± 0.4 mg/kg; Acute toxicity, LD50 ([7]; white mice, confidence limit at P = 0.05): 156 mg/kg; effect on strophanthin arrhythmia, in clinic ([9]; clinic): in some cases is ineffective
